Reference: patent US20050197338A1, “Substituted pyrazole urea compounds for the treatment of inflammation” (priority 2003, published 2005)
Where a name gives a salt, the structure may show the parent alone.

Target: T1, human IKK-2 (rhIKK-2 homodimer) (Homo sapiens, UniProt O14920)
T1 construct: FLAG (DYKDDDDKD) (C); made in house; host or cells: insect cells (baculovirus, pFastBac)
T1 sequence (O14920 1-756): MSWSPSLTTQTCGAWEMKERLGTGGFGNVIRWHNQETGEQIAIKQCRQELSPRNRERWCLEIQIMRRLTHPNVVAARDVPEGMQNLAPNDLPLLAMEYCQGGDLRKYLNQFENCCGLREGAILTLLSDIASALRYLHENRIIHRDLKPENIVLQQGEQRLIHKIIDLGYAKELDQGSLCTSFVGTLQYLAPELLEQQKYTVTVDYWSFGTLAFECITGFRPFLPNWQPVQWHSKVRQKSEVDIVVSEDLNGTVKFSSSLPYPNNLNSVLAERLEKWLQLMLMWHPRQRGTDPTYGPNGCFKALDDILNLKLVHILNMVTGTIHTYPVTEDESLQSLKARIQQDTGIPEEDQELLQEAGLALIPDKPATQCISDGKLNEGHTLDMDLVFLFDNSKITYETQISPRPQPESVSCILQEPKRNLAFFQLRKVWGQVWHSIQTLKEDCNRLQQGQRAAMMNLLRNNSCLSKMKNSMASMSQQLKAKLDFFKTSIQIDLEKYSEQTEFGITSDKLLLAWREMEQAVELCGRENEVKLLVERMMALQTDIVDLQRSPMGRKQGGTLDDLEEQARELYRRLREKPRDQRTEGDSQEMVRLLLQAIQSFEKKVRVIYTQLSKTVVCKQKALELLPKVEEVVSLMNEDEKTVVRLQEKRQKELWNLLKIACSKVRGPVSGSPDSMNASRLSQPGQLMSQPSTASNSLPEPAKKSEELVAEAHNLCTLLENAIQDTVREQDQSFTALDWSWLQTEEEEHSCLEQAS
Assay: IKK-2 Resin Enzyme Assay (Human IKK-2 Enzyme Assay)
Assay type: biochemical
Conditions: human IKK-2, resin enzyme assay; read-out: IC50 (μM) hIKK-2
Summary of the method: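 C-terminally FLAG-tagged human IKK-2 homodimer, baculovirus-expressed in insect cells and anti-FLAG purified. Reaction mix: 5 μM biotinylated IκBα peptide (Ser32/Ser36 region), 1 μM ATP with [γ-33P]ATP, 2 mM MgCl2, 2 mM MnCl2, 10 mM NaF, 1 mM DTT, 25 mM HEPES pH 7.6. Incubated 30 min at 25 °C; IC50 derived.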

**Q.** How did the IC50 turn out when `NC(=O)Nc1cn(-c2ccc(-c3ccc[nH]3)cc2)nc1C(N)=O` [Example 26, 4-[(aminocarbonyl)amino]-1-[4-(1H-pyrrol-2-yl)phenyl]-1H-pyrazole-3-carboxamide] was run?
**A.** 0.59 µM

**Q.** Which IC50 does the source give for `CCc1cc(-c2cccc(O)c2)ccc1-n1cc(NC(N)=O)c(C(N)=O)n1` [Example 282, 4-[(aminocarbonyl)amino]-1-(3-ethyl-3′-hydroxy-1,1′-biphenyl-4-yl)-1H-pyrazole-3-carboxamide] here?
**A.** 12.6 µM

**Q.** How did the IC50 turn out when `COc1cc(-c2cccc(-n3cc(NC(N)=O)c(C(N)=O)n3)c2)c(Cl)cn1` [Example 14, trifluoroacetate] was run?
**A.** 8.95 µM

**Q.** How did the IC50 turn out when `NC(=O)Nc1cn(-c2cccc(-c3ccccc3C(F)(F)F)c2)nc1C(N)=O` [Example 366, 4-[(aminocarbonyl)amino]-1-[2′-(trifluoromeethyl)-1,1′-biphenyl-3-yl]-1H-pyrazole-3-carboxamide] was run?
**A.** > 20 µM

**Q.** Which IC50 does the source give for `NC(=O)Nc1nn(-c2ccc(-c3cc(Cl)ccc3Cl)cc2)cc1C(N)=O` [Example 135] here?
**A.** 1.66 µM

**Q.** `NC(=O)Nc1cn(-c2ccc(-c3cccc(OC(F)(F)F)c3)cc2)nc1C(N)=O` [Example 24, 4-[(aminocarbonyl)amino]-1-[3′-(trifluoromethoxy)-1,1′-biphenyl-4-yl]-1H-pyrazole-3-carboxamide] was tested. Which IC50 did it give?
**A.** 7.73 µM

**Q.** How did the IC50 turn out when `NC(=O)Nc1cn(-c2cccc(-c3ccnc(Cl)c3)c2)nc1C(N)=O` [Example 13, 4-[(aminocarbonyl)amino]-1-[3-(2-chloropyridin-4-yl)phenyl]-1H-pyrazole-3-carboxamide] was run?
**A.** 0.38 µM

**Q.** How did the IC50 turn out when `CNC(=O)CCc1cccc(-c2ccc(-n3cc(NC(N)=O)c(C(N)=O)n3)cc2)c1` [Example 381, 4-[(aminocarbonyl)amino]-1-{3′-[3-(methylamino)-3-oxopropyl]-1,1′-biphenyl-4-yl}-1H-pyrazole-3-carboxamide] was run?
**A.** 0.42 µM

**Q.** How did the IC50 turn out when `N#CCc1cccc(-c2ccc(-n3cc(NC(N)=O)c(C(N)=O)n3)cc2)c1` [Example 27, 4-[(aminocarbonyl)amino]-1-[3′-(cyanomethyl)-1,1′-biphenyl-4-yl]-1H-pyrazole-3-carboxamide] was run?
**A.** 1.36 µM

**Q.** For `NC(=O)Nc1cn(-c2ccc(Sc3cccc(Cl)c3)cc2)nc1C(N)=O` [Example 289, 1-(1-(4-(3-chlorophenylthio)phenyl)-3-carbamoyl-1H-pyrazol-4-yl)urea], which IC50 is on record?
**A.** 10.6 µM

**Q.** Which IC50 does the source give for `NC(=O)Nc1cn(-c2ccc(-c3ccccc3CCC(=O)O)cc2)nc1C(N)=O` [Example 379, 3-(4′-{3-(aminocarbonyl)-4-[(aminocarbonyl)amino]-1H-pyrazol-1-yl}-1,1′-biphenyl-2-yl)propanoic acid] here?
**A.** 1.95 µM

**Q.** `N#CCc1ccc(-c2ccc(-n3cc(NC(N)=O)c(C(N)=O)n3)cc2)cc1` [Example 37, 4-[(aminocarbonyl)amino]-1-[4′-(cyanomethyl)-1,1′-biphenyl-4-yl]-1H-pyrazole-3-carboxamide] was tested. Which IC50 did it give?
**A.** 0.79 µM

**Q.** `NC(=O)Nc1cn(-c2cccc([S+]([O-])c3ccccc3F)c2)nc1C(N)=O` (stereo not drawn) [Example 202, 1-(1-(3-(2-fluorophenylsulfinyl)phenyl)-3-carbamoyl-1H-pyrazol-4-yl)urea] was tested. Which IC50 did it give?
**A.** 5.97 µM

**Q.** Which IC50 does the source give for `CN(Cc1ccc(F)cc1)C(=O)c1ccc(-c2ccc(-n3cc(NC(N)=O)c(C(N)=O)n3)cc2)cc1F` [Example 158, 4-[(aminocarbonyl)amino]-1-(3′-fluoro-4′-{[(4-fluorobenzyl)(methyl)amino]carbonyl}-1,1′-biphenyl-4-yl)-1H-pyrazole-3-carboxamide] here?
**A.** 4.04 µM

**Q.** With `NC(=O)Nc1cn(-c2ccc([S+]([O-])c3ccccn3)cc2)nc1C(N)=O` (stereo not drawn) [Example 284, 1-(3-carbamoyl-1-(4-(pyridin-2-ylsulfinyl)phenyl)-1H-pyrazol-4-yl)urea] as the compound, how does the IC50 read?
**A.** 0.986 µM

**Q.** How did the IC50 turn out when `Cc1cc(-n2cc(NC(N)=O)c(C(N)=O)n2)ccc1-c1cccc(O)c1` [Example 239, 1-(3′-hydroxy-2-methyl-biphenyl-4-yl)-4-ureido-1H-pyrazole-3-carboxylic acid amide] was run?
**A.** 0.161 µM

**Q.** `Cc1noc(C)c1-c1cccc(-n2cc(NC(N)=O)c(C(N)=O)n2)c1` [Example 70, 4-[(aminocarbonyl)amino]-1-[3-(3,5-dimethylisoxazol-4-yl)phenyl]-1H-pyrazole-3-carboxamide] was tested. Which IC50 did it give?
**A.** 0.88 µM

**Q.** With `COc1ccc(Cl)cc1-c1ccc(-n2cc(NC(N)=O)c(C(N)=O)n2)cc1` [Example 129, 4-[(aminocarbonyl)amino]-1-(5′-chloro-2′-methoxy-1,1′-biphenyl-4-yl)-1H-pyrazole-3-carboxamide] as the compound, how does the IC50 read?
**A.** 1.82 µM

**Q.** How did the IC50 turn out when `Cc1cc(-c2ccc(-n3cc(NC(N)=O)c(C(N)=O)n3)cc2)ccc1F` [Example 109, 4-[(aminocarbonyl)amino]-1-(4′-fluoro-3′-methyl-1,1′-biphenyl-4-yl)-1H-pyrazole-3-carboxamide] was run?
**A.** 5.52 µM

**Q.** `CC(C)Cc1ccc(-c2cccc(-n3cc(NC(N)=O)c(C(N)=O)n3)c2)cc1` [Example 363, 4-[(aminocarbonyl)amino]-1-(4′-isobutyl-1,1′-biphenyl-3-yl)-1H-pyrazole-3-carboxamide] was tested. Which IC50 did it give?
**A.** > 20 µM

**Q.** For `NC(=O)Nc1cn(-c2ccc(-c3ccccc3CO)cc2)nc1C(N)=O` [Example 105, 4-[(aminocarbonyl)amino]-1-[2′-(hydroxymethyl)-1,1′-biphenyl-4-yl]-1H-pyrazole-3-carboxamide], which IC50 is on record?
**A.** 0.351 µM

**Q.** Which IC50 does the source give for `COC(=O)c1ccc(-c2ccc(-n3cc(NC(N)=O)c(C(N)=O)n3)cc2)c(N)c1` [Example 29, methyl 2-amino-4′-{3-(aminocarbonyl)-4-[(aminocarbonyl)amino]-1H-pyrazol-1-yl}-1,1′-biphenyl-4-carboxylate] here?
**A.** 0.53 µM

**Q.** With `CC(C)CCSc1ccc(-n2cc(NC(N)=O)c(C(N)=O)n2)cc1` [Example 291, 1-(3-carbamoyl-1-(4-(isopentylthio)phenyl)-1H-pyrazol-4-yl)urea] as the compound, how does the IC50 read?
**A.** 6.23 µM

**Q.** `COc1cccc(-c2ccc(-n3cc(NC(N)=O)c(C(N)=O)n3)cc2)c1F` [Example 120, 4-[(aminooarbonyl)amino]-1-(2′-fluoro-3′-methoxy-1,1′-biphenyl-4-yl)-1H-pyrazole-3-carboxamide] was tested. Which IC50 did it give?
**A.** 0.972 µM

**Q.** How did the IC50 turn out when `Cc1cc(-c2ccccc2O)ccc1-n1cc(NC(N)=O)c(C(N)=O)n1` [Example 235, 4-[(aminocarbonyl)amino]-1-(2′-hydroxy-3-methyl-1,1′-biphenyl-4-yl)-1H-pyrazole-3-carboxamide] was run?
**A.** 13.2 µM

**Q.** Which IC50 does the source give for `NC(=O)Nc1cn(-c2ccc(Sc3ccc(Cl)cc3)cc2)nc1C(N)=O` [Example 290, 1-(1-(4-(4-chlorophenylthio)phenyl)-3-carbamoyl-1H-pyrazol-4-yl)urea] here?
**A.** 4.56 µM

**Q.** `NC(=O)Nc1cn(-c2cccc(-c3ccc4[nH]ccc4c3)c2)nc1C(N)=O` [Example 65, 4-[(aminocarbonyl)amino]-1-[3-(1H-indol-5-yl)phenyl]-1H-pyrazole-3-carboxamide] was tested. Which IC50 did it give?
**A.** 1.8 µM

**Q.** With `Cc1cc(-c2cccc(-n3cc(NC(N)=O)c(C(N)=O)n3)c2)ccn1` [Example 63, 4-[(aminocarbonyl)amino]-1-[3-(2-methylpyridin-4-yl)phenyl]-1H-pyrazole-3-carboxamide] as the compound, how does the IC50 read?
**A.** 0.59 µM

**Q.** `NC(=O)Nc1cn(-c2ccc(I)cc2Cl)nc1C(N)=O` [Example 251, 4-[(aminocarbonyl)amino]-1-(2-chloro-4-iodophenyl)-1H-pyrazole-3-carboxamide] was tested. Which IC50 did it give?
**A.** 0.662 µM

**Q.** With `NC(=O)Nc1cn(-c2cccc(-c3ccc(F)c(F)c3)c2)nc1C(N)=O` [Example 349, 4-[(aminocarbonyl)amino]-1-(3′,4′-difluoro-1,1′-biphenyl-3-yl)-1H-pyrazole-3-carboxamide] as the compound, how does the IC50 read?
**A.** > 20 µM
